According to paper PMC4929936, “Isoform-specific modulation of the chemical sensitivity of conserved TRPA1 channel in the major honeybee ectoparasitic mite, Tropilaelaps mercedesae” (Open Biology, 2016):

Experiments:
TmTRPA1b = molecular target: T1, TmTRPA1b (Tropilaelaps mercedesae, UniProt A0A193PK79); assay: Fura-2 calcium imaging, HEK293; type: cell-based; conditions: pH 7.4, 2 mM CaCl2
T1 construct: gene TRPA1; full-length, untagged, transiently expressed in HEK293 cells; expected 143 kD; 15 ankyrin repeats
T1 sequence (A0A193PK79 1-1258): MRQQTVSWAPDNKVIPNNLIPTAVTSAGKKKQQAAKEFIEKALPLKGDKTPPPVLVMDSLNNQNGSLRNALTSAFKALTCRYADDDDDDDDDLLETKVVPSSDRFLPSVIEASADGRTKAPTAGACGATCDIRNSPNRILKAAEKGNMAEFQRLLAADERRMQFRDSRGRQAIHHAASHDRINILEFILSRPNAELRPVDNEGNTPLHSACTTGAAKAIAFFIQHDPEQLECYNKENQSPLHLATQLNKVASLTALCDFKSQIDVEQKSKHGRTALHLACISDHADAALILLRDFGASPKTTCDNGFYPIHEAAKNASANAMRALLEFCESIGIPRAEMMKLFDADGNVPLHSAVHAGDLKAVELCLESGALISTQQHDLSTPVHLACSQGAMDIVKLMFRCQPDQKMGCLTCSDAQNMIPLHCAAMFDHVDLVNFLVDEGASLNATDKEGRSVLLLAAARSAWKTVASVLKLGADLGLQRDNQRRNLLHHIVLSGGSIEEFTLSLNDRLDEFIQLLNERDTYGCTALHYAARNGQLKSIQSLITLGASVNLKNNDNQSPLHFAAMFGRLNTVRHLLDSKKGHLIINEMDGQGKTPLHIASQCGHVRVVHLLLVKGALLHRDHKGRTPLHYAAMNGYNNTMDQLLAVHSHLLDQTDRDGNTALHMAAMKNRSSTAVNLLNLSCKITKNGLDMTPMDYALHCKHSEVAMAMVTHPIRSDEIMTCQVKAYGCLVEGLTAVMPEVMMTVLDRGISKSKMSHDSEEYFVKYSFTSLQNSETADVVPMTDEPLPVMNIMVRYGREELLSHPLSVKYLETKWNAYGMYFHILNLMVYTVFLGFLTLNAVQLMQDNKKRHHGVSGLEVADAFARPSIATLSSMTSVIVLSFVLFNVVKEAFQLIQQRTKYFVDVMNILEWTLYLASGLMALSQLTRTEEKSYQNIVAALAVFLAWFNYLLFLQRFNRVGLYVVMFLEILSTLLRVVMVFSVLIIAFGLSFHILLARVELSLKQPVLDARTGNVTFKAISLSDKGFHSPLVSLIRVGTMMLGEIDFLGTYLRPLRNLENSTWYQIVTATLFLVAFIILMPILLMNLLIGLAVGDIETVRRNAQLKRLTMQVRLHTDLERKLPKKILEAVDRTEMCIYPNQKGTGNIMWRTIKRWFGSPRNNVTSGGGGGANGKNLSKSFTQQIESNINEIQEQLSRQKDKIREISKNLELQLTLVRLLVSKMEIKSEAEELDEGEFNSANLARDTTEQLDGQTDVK

TmTRPA1a = molecular target: T2, TmTRPA1a (Tropilaelaps mercedesae, UniProt A0A193PK31); assay: Fura-2 calcium imaging, HEK293; type: cell-based; conditions: activator, pH 7.4, 2 mM CaCl2
T2 construct: gene TRPA1; full-length, untagged, transiently expressed in HEK293 cells; expected 134 kD; 15 ankyrin repeats
T2 sequence (A0A193PK31 1-1172): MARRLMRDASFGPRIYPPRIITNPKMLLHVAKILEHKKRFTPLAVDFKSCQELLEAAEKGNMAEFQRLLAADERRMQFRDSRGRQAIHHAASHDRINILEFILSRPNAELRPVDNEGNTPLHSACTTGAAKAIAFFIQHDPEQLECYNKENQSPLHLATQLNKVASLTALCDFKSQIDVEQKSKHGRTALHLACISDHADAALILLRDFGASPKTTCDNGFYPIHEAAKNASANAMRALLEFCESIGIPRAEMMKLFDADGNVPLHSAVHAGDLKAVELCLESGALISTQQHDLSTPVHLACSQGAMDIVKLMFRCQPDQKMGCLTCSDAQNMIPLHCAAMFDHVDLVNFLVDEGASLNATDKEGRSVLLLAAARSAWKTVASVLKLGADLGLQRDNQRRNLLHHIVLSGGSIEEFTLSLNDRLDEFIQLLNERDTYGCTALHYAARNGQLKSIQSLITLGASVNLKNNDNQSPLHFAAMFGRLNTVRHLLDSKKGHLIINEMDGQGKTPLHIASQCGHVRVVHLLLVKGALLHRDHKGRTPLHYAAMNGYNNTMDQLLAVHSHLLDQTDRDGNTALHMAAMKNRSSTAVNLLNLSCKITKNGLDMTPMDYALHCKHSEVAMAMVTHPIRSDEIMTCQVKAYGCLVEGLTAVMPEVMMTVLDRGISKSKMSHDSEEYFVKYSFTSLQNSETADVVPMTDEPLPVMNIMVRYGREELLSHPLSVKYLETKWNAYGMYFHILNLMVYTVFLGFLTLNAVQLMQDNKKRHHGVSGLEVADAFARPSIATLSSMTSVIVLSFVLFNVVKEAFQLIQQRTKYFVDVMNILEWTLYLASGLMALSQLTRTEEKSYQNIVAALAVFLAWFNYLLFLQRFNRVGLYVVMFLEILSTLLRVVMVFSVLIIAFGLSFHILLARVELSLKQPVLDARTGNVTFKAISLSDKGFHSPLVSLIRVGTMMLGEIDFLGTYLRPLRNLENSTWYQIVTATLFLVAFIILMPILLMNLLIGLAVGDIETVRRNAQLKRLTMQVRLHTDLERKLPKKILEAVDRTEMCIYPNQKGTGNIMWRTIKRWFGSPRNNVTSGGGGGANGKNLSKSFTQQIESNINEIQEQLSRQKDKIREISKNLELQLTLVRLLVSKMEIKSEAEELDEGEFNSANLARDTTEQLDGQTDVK
Excerpt: Fura-2 calcium imaging, HEK293 on TmTRPA1a | only six of the compounds activated TmTRPA1a.

CC12CCC(CC1)C(C)(C)O2 [1,8-cineole]
Fura-2 calcium imaging, HEK293 (TmTRPA1b; 1 mM, activator): We observed robust activation of TmTRPA1b by eight representative plant-derived compounds

CCCCCCCCCC(C)=O [2-undecanone]
Fura-2 calcium imaging, HEK293 (TmTRPA1b; 1 mM, activator): We observed robust activation of TmTRPA1b by eight representative plant-derived compounds
Fura-2 calcium imaging, HEK293 (TmTRPA1a; 1 mM): only six of the compounds activated TmTRPA1a. These are nerol, 2-undecanone, carvacrol

C=CCN=C=S [allyl isothiocyanate]
Fura-2 calcium imaging, HEK293 (TmTRPA1b; 1 mM, electrophilic activator): allyl isothiocyanate (AITC), cinnamaldehyde (CA) and diallyl disulfide also activate TmTRPA1b

Cc1ccc(C(C)C)cc1O [carvacrol]
Fura-2 calcium imaging, HEK293 (TmTRPA1b; 0.5 mM, activator): We observed robust activation of TmTRPA1b by eight representative plant-derived compounds
Fura-2 calcium imaging, HEK293 (TmTRPA1a; 0.5 mM): only six of the compounds activated TmTRPA1a. These are nerol, 2-undecanone, carvacrol

O=CC=Cc1ccccc1 [cinnamaldehyde]
Fura-2 calcium imaging, HEK293 (TmTRPA1b; 1 mM, electrophilic activator): allyl isothiocyanate (AITC), cinnamaldehyde (CA) and diallyl disulfide also activate TmTRPA1b

C=CCSSCC=C [diallyl disulfide]
Fura-2 calcium imaging, HEK293 (TmTRPA1b; 1 mM, electrophilic activator): allyl isothiocyanate (AITC), cinnamaldehyde (CA) and diallyl disulfide also activate TmTRPA1b

C=CCc1ccc(O)c(OC)c1 [eugenol]
Fura-2 calcium imaging, HEK293 (TmTRPA1a; 1 mM): These are nerol, 2-undecanone, carvacrol, geranylacetone, eugenol and terpinen-4-ol

CC(=O)CC/C=C(\C)CCC=C(C)C [geranylacetone]
Fura-2 calcium imaging, HEK293 (TmTRPA1b; 0.5 mM, activator): We observed robust activation of TmTRPA1b by eight representative plant-derived compounds
Fura-2 calcium imaging, HEK293 (TmTRPA1a; 0.5 mM): These are nerol, 2-undecanone, carvacrol, geranylacetone, eugenol and terpinen-4-ol

CC/C=C\C[C@H]1C(=O)CC[C@@H]1CC(=O)OC [methyl jasmonate]
Fura-2 calcium imaging, HEK293 (TmTRPA1b; 1 mM, activator): We observed robust activation of TmTRPA1b by eight representative plant-derived compounds

CC(C)=CCC/C(C)=C\CO [nerol]
Fura-2 calcium imaging, HEK293 (TmTRPA1b; 0.5 mM, activator): We observed robust activation of TmTRPA1b by eight representative plant-derived compounds
Fura-2 calcium imaging, HEK293 (TmTRPA1a; 1 mM (Figure 5 legend; Methods state 0.5 mM)): only six of the compounds activated TmTRPA1a. These are nerol, 2-undecanone, carvacrol

CC1=CCC(O)(C(C)C)CC1 (centres unmarked) [terpinen-4-ol]
Fura-2 calcium imaging, HEK293 (TmTRPA1a; 1 mM): These are nerol, 2-undecanone, carvacrol, geranylacetone, eugenol and terpinen-4-ol

CC1=CCC(C(C)(C)O)CC1 (stereo not drawn) [α-terpineol]
Fura-2 calcium imaging, HEK293 (TmTRPA1b; 1 mM, activator): We observed robust activation of TmTRPA1b by eight representative plant-derived compounds

CC(C)=CCCC(C)CCO (stereo not drawn) [β-citronellol]
Fura-2 calcium imaging, HEK293 (TmTRPA1b; 1 mM, activator): We observed robust activation of TmTRPA1b by eight representative plant-derived compounds
